Results taken from ChEMBL document CHEMBL5576050, “Discovery of a DCAF11-dependent cyanoacrylamide-containing covalent degrader of BET-proteins” (Bioorg Med Chem Lett, 2024).
Active and inactive are the calls of the source. The calls are words filed in the database; no cut-off is given here.

Assays:
[1] = target: Bromodomain-containing protein 3 (Homo sapiens) (UniProt Q15059); assay: Induction of BRD3 degradation in human KBM-7 cells at 5 uM incubated for 5 hrs by Western blotting analysis; format: cell-based
[2] = target: T1, Bromodomain-containing protein 4 (Homo sapiens, UniProt O60885); assay: Induction of BRD4 degradation in human KBM-7 cells at 5 uM incubated for 5 hrs by Western blotting analysis; format: cell-based
[3] = tested on: KBM-7; assay: Downregulation of c-Myc expression in human KBM-7 cells at 5 uM after 5 hrs by Western blotting analysis; format: functional, cell-based
[4] = target: T1, Bromodomain-containing protein 4; assay: Induction of nLuc-tagged BRD4S degradation in human KBM-7 cells incubated for 2 to 24 hrs by nanoluciferase based assay; format: cell-based; conditions: for Activity: time 2-24 hrs
[5] = target: T1, Bromodomain-containing protein 4; assay: Induction of HA-tagged BRD4S degradation in human KBM-7 cells at 5 uM after 5 to 20 hrs by Western blotting analysis; format: cell-based; conditions: time 5-20 hrs
[6] = target: T1, Bromodomain-containing protein 4; assay: Induction of nLuc-tagged BRD4S degradation in human KBM-7 cells by nanoluciferase based assay; format: cell-based; conditions: time 2-24 hrs, TDE = time-dependent effect
[7] = target: T1, Bromodomain-containing protein 4; assay: Induction of HA-tagged BRD4S degradation in human KBM-7 cells at 5 uM pretreated with bortezomib for 1 hr followed by compound addition and measured after 6 hrs by Western blotting analysis; format: cell-based
[8] = target: Bromodomain-containing protein 3 (Homo sapiens) (UniProt Q15059); assay: Induction of BRD3 degradation in human KBM-7 cells at 5 uM pretreated with bortezomib for 1 hr followed by compound addition and measured after 6 hrs by Western blotting analysis; format: cell-based
[9] = target: T1, Bromodomain-containing protein 4; assay: Induction of HA-tagged BRD4S degradation in human KBM-7 cells at 5 uM pretreated with carfilzomib for 1 hr followed by compound addition and measured after 6 hrs by Western blotting analysis; format: cell-based
[10] = target: Bromodomain-containing protein 3 (Homo sapiens) (UniProt Q15059); assay: Induction of BRD3 degradation in human KBM-7 cells at 5 uM pretreated with carfilzomib for 1 hr followed by compound addition and measured after 6 hrs by Western blotting analysis; format: cell-based
[11] = target: T1, Bromodomain-containing protein 4; assay: Induction of HA-tagged BRD4S degradation in human KBM-7 cells at 5 uM pretreated with TAK-243 for 1 hr followed by compound addition and measured after 6 hrs by Western blotting analysis; format: cell-based
[12] = target: Bromodomain-containing protein 3 (Homo sapiens) (UniProt Q15059); assay: Induction of BRD3 degradation in human KBM-7 cells at 5 uM pretreated with TAK-243 for 1 hr followed by compound addition and measured after 6 hrs by Western blotting analysis; format: cell-based
[13] = target: Bromodomain-containing protein 3 (Homo sapiens) (UniProt Q15059); assay: Induction of BRD3 degradation in DCAF11 knockout human KBM-7 cells at 5 uM after 6 hrs by Western blotting analysis; format: cell-based
[14] = target: T1, Bromodomain-containing protein 4; assay: Induction of BRD4 degradation in DCAF11 knockout human KBM-7 cells at 5 uM after 6 hrs by Western blotting analysis; format: cell-based
[15] = tested on: KBM-7; assay: Downregulation of c-MYC expression in DCAF11 knockout human KBM-7 cells at 5 uM after 6 hrs by Western blotting analysis; format: functional, cell-based
[16] = target: T1, Bromodomain-containing protein 4; assay: Induction of BRD4S-BFP in DCAF11 knockout human K-BM7 cells transduced with sgRNA-resistant DCAF11 vector containing Cys-to-Ala mutant at 5 uM incubated for 6 hrs by flow cytometry analysis; format: cell-based; conditions: KBM-7
[17] = target: T1, Bromodomain-containing protein 4; assay: Induction of BRD4S-BFP in DCAF11 knockout human K-BM7 cells transduced with sgRNA-resistant wild-type DCAF11 at 5 uM incubated for 6 hrs by flow cytometry analysis; format: cell-based; conditions: KBM-7
[18] = target: Bromodomain-containing protein 2 (Homo sapiens) (UniProt P25440); assay: Induction of BRD2 degradation in human KBM-7 cells at 5 uM pretreated with […] binder 11 for 1 hr followed by compound addition and measured after 5 hrs by Western blotting analysis; format: cell-based
[19] = target: Bromodomain-containing protein 2 (Homo sapiens) (UniProt P25440); assay: Induction of BRD2 degradation in human KBM-7 cells at 5 uM pretreated with DCAF11 binder 12 for 1 hr followed by compound addition and measured after 5 hrs by Western blotting analysis; format: cell-based
[20] = target: Bromodomain-containing protein 3 (Homo sapiens) (UniProt Q15059); assay: Induction of BRD3 degradation in human KBM-7 cells at 5 uM pretreated with […] binder 11 for 1 hr followed by compound addition and measured after 5 hrs by Western blotting analysis; format: cell-based
[21] = target: Bromodomain-containing protein 3 (Homo sapiens) (UniProt Q15059); assay: Induction of BRD3 degradation in human KBM-7 cells at 5 uM pretreated with […] binder 12 for 1 hr followed by compound addition and measured after 5 hrs by Western blotting analysis; format: cell-based
[22] = target: T1, Bromodomain-containing protein 4; assay: Induction of BRD4 degradation in human KBM-7 cells at 5 uM pretreated with […] binder 11 for 1 hr followed by compound addition and measured after 5 hrs by Western blotting analysis; format: cell-based
[23] = target: T1, Bromodomain-containing protein 4; assay: Induction of BRD4 degradation in human KBM-7 cells at 5 uM pretreated with […] binder 12 for 1 hr followed by compound addition and measured after 5 hrs by Western blotting analysis; format: cell-based

Chain of Bromodomain-containing protein 3 (Homo sapiens) (Q15059 2-726 limits assumed): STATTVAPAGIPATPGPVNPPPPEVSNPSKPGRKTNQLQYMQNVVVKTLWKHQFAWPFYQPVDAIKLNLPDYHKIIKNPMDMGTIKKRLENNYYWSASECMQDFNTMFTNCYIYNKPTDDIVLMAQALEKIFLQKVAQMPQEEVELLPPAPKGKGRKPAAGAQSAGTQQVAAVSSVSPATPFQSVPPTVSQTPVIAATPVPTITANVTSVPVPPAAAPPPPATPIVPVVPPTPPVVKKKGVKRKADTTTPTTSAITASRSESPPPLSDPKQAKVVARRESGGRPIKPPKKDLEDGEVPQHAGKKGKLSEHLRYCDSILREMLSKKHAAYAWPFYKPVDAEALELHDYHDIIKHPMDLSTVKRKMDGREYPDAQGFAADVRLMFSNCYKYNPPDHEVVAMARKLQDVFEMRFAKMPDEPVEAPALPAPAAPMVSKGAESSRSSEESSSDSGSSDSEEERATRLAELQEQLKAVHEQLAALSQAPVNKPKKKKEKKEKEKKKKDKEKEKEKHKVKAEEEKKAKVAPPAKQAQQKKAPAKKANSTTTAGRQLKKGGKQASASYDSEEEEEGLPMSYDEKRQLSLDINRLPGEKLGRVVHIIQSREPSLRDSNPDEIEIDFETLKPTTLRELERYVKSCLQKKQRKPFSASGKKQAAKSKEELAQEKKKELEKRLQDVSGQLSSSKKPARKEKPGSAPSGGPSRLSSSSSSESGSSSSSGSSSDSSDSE
Chain of Bromodomain-containing protein 2 (Homo sapiens) (P25440 whole entry, looked up): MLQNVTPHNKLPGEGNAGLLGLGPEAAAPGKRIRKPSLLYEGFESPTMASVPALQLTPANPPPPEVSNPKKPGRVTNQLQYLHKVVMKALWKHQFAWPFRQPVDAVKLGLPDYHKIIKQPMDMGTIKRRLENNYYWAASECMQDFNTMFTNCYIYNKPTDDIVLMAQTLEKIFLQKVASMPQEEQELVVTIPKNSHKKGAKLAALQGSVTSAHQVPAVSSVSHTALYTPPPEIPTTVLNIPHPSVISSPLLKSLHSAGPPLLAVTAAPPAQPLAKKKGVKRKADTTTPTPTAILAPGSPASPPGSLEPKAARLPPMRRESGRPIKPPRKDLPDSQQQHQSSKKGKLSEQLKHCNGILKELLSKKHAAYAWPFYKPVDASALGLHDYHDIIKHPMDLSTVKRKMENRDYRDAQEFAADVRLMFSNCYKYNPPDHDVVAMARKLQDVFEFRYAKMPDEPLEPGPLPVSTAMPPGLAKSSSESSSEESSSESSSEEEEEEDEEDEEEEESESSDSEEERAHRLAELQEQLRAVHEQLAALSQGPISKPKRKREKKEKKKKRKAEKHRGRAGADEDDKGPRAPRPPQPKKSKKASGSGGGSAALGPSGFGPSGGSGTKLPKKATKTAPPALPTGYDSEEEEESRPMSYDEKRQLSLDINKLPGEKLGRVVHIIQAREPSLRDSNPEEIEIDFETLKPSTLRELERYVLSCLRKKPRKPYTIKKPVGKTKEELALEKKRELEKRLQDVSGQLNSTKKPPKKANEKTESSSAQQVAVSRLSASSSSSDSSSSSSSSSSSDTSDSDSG

Cc1sc2c(c1C)C(c1ccc(Cl)cc1)=N[C@@H](CC(=O)NCCCCCCNC(=O)COc1ccc(CNC(=O)/C=C/c3ccc4ccccc4c3)cc1)c1nnc(C)n1-2
Activity [1]: Active
Activity [2]: Active
Activity [3]: inactive
Activity [4]: inactive

Cc1sc2c(c1C)C(c1ccc(Cl)cc1)=N[C@@H](CC(=O)NCCCCCCNC(=O)COc1ccc(CNC(=O)CCc3ccc4ccccc4c3)cc1)c1nnc(C)n1-2
Activity [1]: Active
Activity [2]: Active
Activity [3]: inactive

Cc1sc2c(c1C)C(c1ccc(Cl)cc1)=N[C@@H](CC(=O)NCCCCCCNC(=O)COc1ccc(CNC(=O)/C(C#N)=C/c3ccc4ccccc4c3)cc1)c1nnc(C)n1-2
Activity [1]: Active
Activity [2]: Active
Activity [3]: Active
Activity [5]: Active
DC50 [4]: 305 nM
Activity [4]: Dose-Dependent Effect
Activity [6]: Tde
Activity [7]: inactive
Activity [8]: inactive
Activity [9]: inactive
Activity [10]: inactive
Activity [11]: inactive
Activity [12]: inactive
Activity [13]: inactive
Activity [14]: inactive
Activity [15]: Active
Activity [16]: inactive
Activity [17]: Active
Activity [18]: inactive
Activity [19]: inactive
Activity [20]: inactive
Activity [21]: inactive
Activity [22]: inactive
Activity [23]: inactive

Cc1sc2c(c1C)C(c1ccc(Cl)cc1)=N[C@@H](CC(=O)NCCOCCOCCNC(=O)COc1ccc(CNC(=O)/C(C#N)=C/c3ccc4ccccc4c3)cc1)c1nnc(C)n1-2
DC50 [4]: 396 nM
Activity [4]: Dose-Dependent Effect
Activity [6]: Tde
